Laboratory results from patent publication US20160081938A1, “ACAMPROSATE FORMULATIONS, METHODS OF USING THE SAME, AND COMBINATIONS COMPRISING THE SAME” (Synchroneuron Inc., priority 2013, published 2016).

Tests used:
[1] = Simulated sustained release in a dog model; format: in vivo; details: sustained presentation over eight hours
Protocol: It has been discovered that the shape of the PK curve and not just the AUC can make a difference to efficacy. Specifically, having a plasma concentration above a threshold for several hours per day (e.g., 4-8 hours) may be more efficacious than maintaining a concentration just below that threshold for 24 hours a day. […] In this model, the drug conserved by avoiding a high single dose and high Cmax was distributed across several hours, giving a several hour period in which the plasma concentration of acamprosate was higher than the plasma concentration after administration of a single dose of the immediate release version.
In a dog study of simulated sustained release of acamprosate it was shown that through sustained release a higher residence time above a threshold can be attained than by giving the same dose all at once. Combining the results from the dog study with the implications of the reported human cases we contemplate that acamprosate delivered by a sustained release system can relieve symptoms of TD and other neuropsychiatric disorders given once or twice a day. […] Thus it appears that a total daily dose of less than one gram of sustained release acamprosate, given on a twice a day basis, or perhaps even on a once a day basis, could be adequate to treat TD in the case examples. […]

[2] = high solubility and low permeability; cited from earlier work

CC(=O)NCCCS(=O)(=O)O [Acamprosate, 3-(acetylamino)-1-propanesulfonic acid]
residence time above a threshold concentration vs immediate release of the same dosage [1]: significantly longer residence time
Biopharmaceuticals Classification System (BCS) class [2]: Class III
